According to ChEMBL document CHEMBL3259629, “Discovery and optimization of piperidyl-1,2,3-triazole ureas as potent, selective, and in vivo-active inhibitors of α/β-hydrolase domain containing 6 (ABHD6)” (J Med Chem, 2013):

How the values were obtained:
Settings in all cases: Neuro2a, 3 nM
[1] = molecular target: T1, Lysophosphatidylserine lipase ABHD12 (Mus musculus) (UniProt Q99LR1)
T1 sequence (whole entry): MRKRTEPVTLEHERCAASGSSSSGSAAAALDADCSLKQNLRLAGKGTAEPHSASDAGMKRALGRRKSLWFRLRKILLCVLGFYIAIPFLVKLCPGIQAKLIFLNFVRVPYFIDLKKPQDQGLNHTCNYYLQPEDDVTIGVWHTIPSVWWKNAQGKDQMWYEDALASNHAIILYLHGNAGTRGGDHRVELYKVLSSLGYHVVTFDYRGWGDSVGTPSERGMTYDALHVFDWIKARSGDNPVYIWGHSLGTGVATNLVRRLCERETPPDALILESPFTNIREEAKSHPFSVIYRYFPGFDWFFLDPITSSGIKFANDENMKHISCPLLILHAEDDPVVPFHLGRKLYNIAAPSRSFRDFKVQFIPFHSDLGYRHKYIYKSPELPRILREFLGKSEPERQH
Description: Inhibition of Abhd12 in mouse Neuro2a cells at 3 nM after 4 hrs by ABPP-SILAC assay

[2] = molecular target: T2, Calcium-independent phospholipase A2-gamma (Mus musculus) (UniProt Q8K1N1)
T2 sequence (whole entry): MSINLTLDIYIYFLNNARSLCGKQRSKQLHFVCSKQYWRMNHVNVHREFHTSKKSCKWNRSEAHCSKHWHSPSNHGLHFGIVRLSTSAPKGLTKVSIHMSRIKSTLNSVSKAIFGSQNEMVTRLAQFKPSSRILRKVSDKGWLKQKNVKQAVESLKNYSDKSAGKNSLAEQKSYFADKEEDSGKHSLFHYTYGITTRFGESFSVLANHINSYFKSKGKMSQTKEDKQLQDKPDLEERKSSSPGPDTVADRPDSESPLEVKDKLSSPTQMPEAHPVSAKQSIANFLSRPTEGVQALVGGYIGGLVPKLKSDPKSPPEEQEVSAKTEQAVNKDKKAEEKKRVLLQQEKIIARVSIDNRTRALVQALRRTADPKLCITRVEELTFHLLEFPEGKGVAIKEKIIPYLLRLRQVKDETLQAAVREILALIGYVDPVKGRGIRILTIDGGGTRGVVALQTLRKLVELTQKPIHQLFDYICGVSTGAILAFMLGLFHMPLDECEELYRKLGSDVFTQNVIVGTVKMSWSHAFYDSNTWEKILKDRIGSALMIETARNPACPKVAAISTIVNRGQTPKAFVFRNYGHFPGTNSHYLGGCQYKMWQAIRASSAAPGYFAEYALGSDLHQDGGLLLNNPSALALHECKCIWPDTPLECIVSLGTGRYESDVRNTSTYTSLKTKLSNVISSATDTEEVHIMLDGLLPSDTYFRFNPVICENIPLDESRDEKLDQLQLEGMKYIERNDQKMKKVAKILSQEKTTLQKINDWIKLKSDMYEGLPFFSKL
Description: Inhibition of Pnpla8 in mouse Neuro2a cells at 3 nM after 4 hrs by ABPP-SILAC assay

[3] = molecular target: T3, Lysosomal thioesterase PPT2 (Mus musculus) (UniProt O35448)
T3 sequence (whole entry): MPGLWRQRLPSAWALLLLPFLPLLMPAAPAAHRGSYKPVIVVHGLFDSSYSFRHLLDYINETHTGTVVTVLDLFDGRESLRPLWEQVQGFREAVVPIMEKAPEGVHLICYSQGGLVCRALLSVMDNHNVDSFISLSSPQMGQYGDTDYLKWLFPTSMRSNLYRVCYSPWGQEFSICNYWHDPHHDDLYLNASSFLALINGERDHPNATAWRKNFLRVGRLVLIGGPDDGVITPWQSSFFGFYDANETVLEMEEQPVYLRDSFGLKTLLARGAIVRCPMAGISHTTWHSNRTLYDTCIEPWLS
Description: Inhibition of Ppt2 in mouse Neuro2a cells at 3 nM after 4 hrs by ABPP-SILAC assay

[4] = molecular target: T4, Palmitoyl-protein thioesterase ABHD10, mitochondrial (Mus musculus) (UniProt Q6PE15)
T4 sequence (whole entry): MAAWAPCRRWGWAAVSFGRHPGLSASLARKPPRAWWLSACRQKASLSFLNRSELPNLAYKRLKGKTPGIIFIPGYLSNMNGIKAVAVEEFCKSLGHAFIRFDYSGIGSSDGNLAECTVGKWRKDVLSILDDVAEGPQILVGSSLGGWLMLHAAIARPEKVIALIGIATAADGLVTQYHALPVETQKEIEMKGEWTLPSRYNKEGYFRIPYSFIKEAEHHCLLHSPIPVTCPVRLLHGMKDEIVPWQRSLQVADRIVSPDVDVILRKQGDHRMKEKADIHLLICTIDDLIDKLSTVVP
Description: Inhibition of Abhd10 in mouse Neuro2a cells at 3 nM after 4 hrs by ABPP-SILAC assay

[5] = molecular target: T5, sn-1-specific diacylglycerol lipase ABHD11 (Mus musculus) (UniProt Q8K4F5)
T5 sequence (whole entry): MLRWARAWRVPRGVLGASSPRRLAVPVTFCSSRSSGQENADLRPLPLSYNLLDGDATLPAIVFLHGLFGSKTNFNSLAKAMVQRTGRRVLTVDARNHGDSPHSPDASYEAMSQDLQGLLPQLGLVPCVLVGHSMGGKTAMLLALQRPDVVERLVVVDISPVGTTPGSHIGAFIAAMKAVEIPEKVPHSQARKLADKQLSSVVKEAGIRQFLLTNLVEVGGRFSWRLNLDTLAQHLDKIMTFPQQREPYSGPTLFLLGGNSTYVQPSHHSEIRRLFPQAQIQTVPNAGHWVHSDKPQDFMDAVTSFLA
Description: Inhibition of Abhd11 in mouse Neuro2a cells at 3 nM after 4 hrs by ABPP-SILAC assay

[6] = molecular target: T6, Triacylglycerol hydrolase DDHD2 (Mus musculus) (UniProt Q80Y98)
T6 sequence (whole entry): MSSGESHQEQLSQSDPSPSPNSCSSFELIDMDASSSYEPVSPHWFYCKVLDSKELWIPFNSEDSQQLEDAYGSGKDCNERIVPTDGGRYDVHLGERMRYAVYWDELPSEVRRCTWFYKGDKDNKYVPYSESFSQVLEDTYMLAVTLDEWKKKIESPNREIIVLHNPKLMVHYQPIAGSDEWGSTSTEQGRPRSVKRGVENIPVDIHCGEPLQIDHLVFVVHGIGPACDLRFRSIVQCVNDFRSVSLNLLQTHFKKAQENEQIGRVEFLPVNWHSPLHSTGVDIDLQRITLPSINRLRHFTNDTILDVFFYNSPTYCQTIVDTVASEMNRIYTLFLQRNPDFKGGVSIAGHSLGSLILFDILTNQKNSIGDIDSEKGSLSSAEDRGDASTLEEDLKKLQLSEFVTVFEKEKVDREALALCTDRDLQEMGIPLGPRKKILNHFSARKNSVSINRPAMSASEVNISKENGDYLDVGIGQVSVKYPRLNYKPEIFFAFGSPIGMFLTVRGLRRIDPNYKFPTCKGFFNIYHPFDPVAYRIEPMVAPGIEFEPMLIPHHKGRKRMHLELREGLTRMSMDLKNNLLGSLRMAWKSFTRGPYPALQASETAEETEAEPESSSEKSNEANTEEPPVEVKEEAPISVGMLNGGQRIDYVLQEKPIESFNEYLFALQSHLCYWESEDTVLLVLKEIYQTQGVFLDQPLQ
Description: Inhibition of Ddhd2 in mouse Neuro2a cells at 3 nM after 4 hrs by ABPP-SILAC assay

Measured: inhibition

O=C(N1CCCCC1c1ccccc1)n1cc(-c2ccc(-c3cccc(CO)c3)cc2)nn1 (racemic)
< 50%: all assays above

O=C(c1cccc(-c2ccc(-c3cn(C(=O)N4CCCCC4c4ccccc4)nn3)cc2)c1)N1CCCCC1 (racemic)
< 50%: all assays above

O=C(O)c1cccc(-c2ccc(-c3cn(C(=O)N4CCCCC4Cc4ccccc4)nn3)cc2)c1 (racemic)
< 50%: all assays above
